Experimental data taken from patent US20220280525A1, “RAC INHIBITION AS A NOVEL THERAPEUTIC STRATEGY FOR EGFR/HER2 TARGETED THERAPY RESISTANT BREAST CANCER” (UNIVERSITY OF PUERTO RICO, priority 2021, published 2022).
Where two headings read alike, the source gives them in different places.

Assays:
[1] = tested on: SKBR3 gefitinib resistant (Gef.R) cells; format: cell-based, human
[2] = tested on: SKBR3 therapy sensitive cells; assay: MTT cell viability assay, therapy sensitive SKBR3 cells; format: cell-based, human; settings: 5 and 10 μM, 24 h
From the text: (§1) FIG. 6A-6F. […] N=3±SEM *=p≤0.05, **=p≤0.01****=p≤0.001.

[3] = tested on: HER2+ and EGFR+breast cancer cells; assay: Mammosphere forming efficiency with Rac inhibitors; format: cell-based
[4] = tested on: Rac; assay: Effective concentration of Rac inhibitors; settings: relative to NSC23766
[5] = tested on: SKBR3 lapatinib resistant (Lap.R) cells; assay: MTT cell viability assay, lapatinib resistant SKBR3 variant; settings: for decrease in cell viability: Lap.R SKBR3
[6] = tested on: MDA-MB-435 HER2+ cells resistant to lapatinib and trastuzumab; assay: MTT cell viability assay, therapy resistant MDA-MB-435 variant; format: cell-based; settings: 48 h
[7] = tested on: SKBR3 lapatinib resistant cells; assay: Caspase-Glo 3/7 apoptosis assay, lapatinib resistant SKBR3 cells; format: cell-based, human
Experimental: (§2) FIG. 3A-3B. Apoptosis in therapy sensitive and resistant variants Apoptosis in therapy sensitive and resistant SKBR3 cell variants was detected by a Caspase-Glo 3/7 Assay. (A) Fold change in Caspase 3/7 activity in the therapy sensitive SKBR3 cell line following Gef or Lap treatment for 48 h compared to the vehicle controls. (B) Fold change in caspase 3/7 activity in the therapy resistant cell lines following treatment compared to non-treated cells. N=3±SEM, *=p≤0.05, ***=p≤0.005
as §1
(§3) Apoptosis was analyzed by the Caspase-Glo 3/7 activity assay (Promega) as described by the manufacturer. Briefly, cells were seeded in a 96 well plate and treated for 48h. Luminogenic caspase- 3/7 substrate containing a DEVD sequence was added and incubated for 1h. The luminescence was measured by a plate-reading luminometer.

[8] = target: HER2 (Homo sapiens, UniProt P04626)
[9] = tested on: SKBR3 therapy sensitive cells; assay: Mammosphere assay, therapy sensitive SKBR3 cells; settings: 0.5 μM gefitinib or 0.1 μM lapatinib
[10] = tested on: SKBR3 therapy resistant variants; assay: Mammosphere assay, therapy resistant SKBR3 variants; settings: therapy resistant variants treated with gefitinib or lapatinib
[11] = tested on: Trastuzumab resistant SKBR3 cells; assay: MTT cell viability assay, Trastuzumab resistant SKBR3 variant; format: cell-based; settings: Homo sapiens; for cytotoxicity at 0.25 µM: SK-BR-3
[12] = tested on: Trastuzumab resistant SKBR3 variant; assay: Caspase 3/7 apoptosis assay, Trastuzumab resistant SKBR3 variant; format: cell-based, human
[13] = tested on: gefitinib resistant SKBR3 variants; assay: Cell phenotype of gefitinib resistant SKBR3 variants after Rac inhibitor; format: cell-based, human
[14] = tested on: SKBR3 therapy sensitive cells; assay: Caspase-Glo 3/7 apoptosis assay, therapy sensitive SKBR3 cells; format: cell-based, human; settings: gefitinib, 48 h, vs vehicle
Experimental: as §2, §3

[15] = tested on: Rac; settings: Tiam1/Rac inhibitor, most studies; cited from earlier work
[16] = MBQ-167 250 nM, Lapatinib resistant SKBR3

With `CCn1c2ccccc2c2cc(Nc3ccnc(NCCCN4CCOCC4)n3)ccc21` [EHop-016] the cell viability [1] was “statistically significant decrease in cell viability”, the cell viability [2] was “statistically significant decrease in cell viability” and the “mammosphere forming efficiency (MFE)” value [3] was “significantly reduce the MFE”. For the same molecule, the “effective concentration lower than NSC23766” value [4] was 100 × and the cell viability ([5]; lapatinib resistant SKBR3, 5 and 10 μM, 24 h) was “statistically significant decrease in cell viability”.
In the case of `CS(=O)(=O)CCNCc1ccc(-c2ccc3ncnc(Nc4ccc(OCc5cccc(F)c5)c(Cl)c4)c3c2)o1` [lapatinib], the “sensitivity of cell viability” value ([6]; single agent) is reported as “insensitive”, the “caspase 3/7 activity” value ([7]; lapatinib resistant variant in response to lapatinib) is reported as “significant decrease in caspase 3/7 activity” and the “expression of total HER2” value ([8]; sensitive SKBR3 cells, 24 h, 0.5 μM gefitinib, 0.1 μM lapatinib) is reported as “significantly elevated”. For the same molecule, the pHER2 levels ([8]; variants resistant to gefitinib 0.1 μM and lapatinib 0.1 μM, each with its own drug) was “decreased pEGFR and pHER2 levels”, the mammosphere formation [9] was “significant reduction in mammosphere formation” and the mammosphere formation [10] was “no significant effect on mammosphere formation”. For the same molecule, the cell viability ([5]; Lap.R cells, lapatinib alone) was “did not affect the viability”.
For `CCn1c2ccccc2c2cc(-n3nncc3-c3ccccc3)ccc21` (racemic) [MBQ-167], the “decrease in cell viability” value ([6]; MBQ-167 alone) was ~40%, the cell viability ([6]; MBQ-167 in the presence of trastuzumab) was “inhibits MDA-MB-435 cell viability” and the IC50 ([11]; SK-BR-3, read-out: IC50 (cell viability)) was 100 nM. The cytotoxicity at 0.25 µM ([11]; 96 and 120h, 250 nM MBQ-167, read-out: reduction of viability) was 90 to 100%, the cytotoxicity at 0.25 µM ([11]; 72 h, saturated at 250 nM, read-out: decrease in viability) was 50% and the “increase in caspase 3/7 activity” value ([7]; MBQ-167 0.25 μM alone, Lap.R SKBR3) was > 2 fold. For the same molecule, the caspase activity ([7]; MBQ-167 0.25 μM in combination with lapatinib 0.5 μM, Lap.R SKBR3) was “even higher significant increase in caspase activity”, the apoptosis induction [7, 16] was 55% and the “apoptosis (Caspase 3/7)” value ([12]; MBQ-167 in the presence of Trastuzumab) was “only partially overcame this resistance to apoptosis”. For the same molecule, the “apoptosis (Caspase 3/7)” value ([12]; single agent, MBQ-167 at 250-750 nM) was “induced apoptosis”, the “mammosphere forming efficiency (MFE)” value [3] was “significantly reduce the MFE” and the cell phenotype [13] was “cell rounding, detachment from the substrate, and subsequent death”. The “effective concentration lower than NSC23766” value [4] was 100 ×, the “decrease in cell viability” value ([5]; 0.5 μM MBQ-167 alone) was ~40% and the “decrease in cell viability” value ([5]; 0.5 μM MBQ-167 in combination with 0.5 μM lapatinib) was ~40%. The reduction of viability [5, 16] was 30%.
In the case of `COc1cc2ncnc(Nc3ccc(F)c(Cl)c3)c2cc1OCCCN1CCOCC1` [gefitinib], the “apoptosis (caspase 3/7 activity)” value [14] is reported as “did not respond to gefitinib by apoptosis”, the mammosphere formation [9] is reported as “significant reduction in mammosphere formation” and the mammosphere formation [10] is reported as “no significant effect on mammosphere formation”.
For `CCN(CC)CCCC(C)Nc1nc(C)cc(Nc2ccc3nc(C)cc(N)c3c2)n1` (centres unmarked) [NSC23766], the active concentration [15] is given as 50 to 100 µM.
